Results reported in ChEMBL document CHEMBL5113513, “Selective Inhibitors of Medium-Size S1' Pocket Matrix Metalloproteinases: A Stepping Stone of Future Drug Discovery” (J Med Chem, 2022).
One block for each molecule: values may come before it.

What was measured:
Interstitial collagenase [1] = target: T1, Interstitial collagenase (Homo sapiens, UniProt P03956); assay: Inhibition of MMP-1 (unknown origin)
T1 sequence (P03956 whole entry): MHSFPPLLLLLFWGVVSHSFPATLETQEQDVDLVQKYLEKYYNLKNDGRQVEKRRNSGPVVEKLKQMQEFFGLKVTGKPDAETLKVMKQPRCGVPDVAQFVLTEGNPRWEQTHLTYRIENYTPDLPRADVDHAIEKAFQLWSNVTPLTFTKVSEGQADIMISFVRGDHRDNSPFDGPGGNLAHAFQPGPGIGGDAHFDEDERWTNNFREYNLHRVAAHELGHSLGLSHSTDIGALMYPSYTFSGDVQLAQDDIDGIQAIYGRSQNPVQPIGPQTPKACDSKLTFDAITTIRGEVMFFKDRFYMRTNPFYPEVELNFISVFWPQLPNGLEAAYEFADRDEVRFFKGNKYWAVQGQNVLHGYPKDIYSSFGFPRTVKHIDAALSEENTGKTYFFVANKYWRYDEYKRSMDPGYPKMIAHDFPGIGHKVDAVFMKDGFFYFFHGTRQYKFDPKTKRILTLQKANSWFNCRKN

Stromelysin-1 [2] = target: T2, Stromelysin-1 (Homo sapiens, UniProt P08254); assay: Inhibition of MMP-3 (unknown origin)
Matrilysin [3] = target: T3, Matrilysin (Homo sapiens, UniProt P09237); assay: Inhibition of MMP-7 (unknown origin)
T3 sequence (P09237 whole entry): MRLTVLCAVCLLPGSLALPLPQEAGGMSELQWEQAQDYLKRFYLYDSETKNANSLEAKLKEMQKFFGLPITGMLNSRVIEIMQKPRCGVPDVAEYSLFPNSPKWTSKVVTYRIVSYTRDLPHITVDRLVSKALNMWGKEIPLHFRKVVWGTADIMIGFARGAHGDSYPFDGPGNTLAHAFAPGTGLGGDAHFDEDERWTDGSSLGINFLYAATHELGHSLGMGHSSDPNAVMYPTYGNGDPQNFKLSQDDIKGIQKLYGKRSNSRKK

Neutrophil collagenase [4] = target: T4, Neutrophil collagenase (Homo sapiens, UniProt P22894); assay: Inhibition of MMP-8 (unknown origin)
[5] = target: Macrophage metalloelastase (Homo sapiens, UniProt P39900); assay: Inhibition of MMP-12 (unknown origin)
Collagenase 3 [6] = target: T5, Collagenase 3 (Homo sapiens, UniProt P45452)
Description: Inhibition of MMP-13 (unknown origin)

[7] = target: T6, Matrix metalloproteinase-14 (Homo sapiens, UniProt P50281); assay: Inhibition of MMP-14 (unknown origin)
[8] = target: T7, 72 kDa type IV collagenase (Homo sapiens, UniProt P08253); assay: Inhibition of MMP-2 (unknown origin) catalytic activity using Ac-PLG-[2-mercapto-4-methylpentanoyl]-LG-OC2H5 as substrate and measured upto 30 mins by microplate reader analysis
[9] = target: T8, Matrix metalloproteinase-9 (Homo sapiens, UniProt P14780); assay: Inhibition of MMP-9 (unknown origin) catalytic activity using Ac-PLG-[2-mercapto-4-methylpentanoyl]-LG-OC2H5 as substrate and measured upto 30 mins by microplate reader analysis
Stromelysin-2 [10] = target: T9, Stromelysin-2 (Homo sapiens, UniProt P09238); assay: Inhibition of MMP-10 (unknown origin)
[11] = target: T7, 72 kDa type IV collagenase
[12] = target: T8, Matrix metalloproteinase-9; assay: Inhibition of MMP-9 (unknown origin)
Interstitial collagenase [13] = target: T1, Interstitial collagenase; assay: Inhibition of human MMP-1 expressed in Escherichia coli BL21(DE3) using Mca-Pro-Leu-Gly-Leu-Dpa-Ala-Arg-NH2 as substrate preincubated for 30 mins followed by susbstrate addition by photon-counter spectrophotometer analysis
[14] = target: T7, 72 kDa type IV collagenase; assay: Inhibition of human MMP-2 expressed in Escherichia coli BL21(DE3) using Mca-Pro-Leu-Gly-Leu-Dpa-Ala-Arg-NH2 as substrate preincubated for 30 mins followed by susbstrate addition by photon-counter spectrophotometer analysis
Stromelysin-1 [15] = target: T2, Stromelysin-1; assay: Inhibition of human MMP-3 expressed in Escherichia coli BL21(DE3) using Mca-Pro-Leu-Gly-Leu-Dpa-Ala-Arg-NH2 as substrate preincubated for 30 mins followed by susbstrate addition by photon-counter spectrophotometer analysis
Matrilysin [16] = target: T3, Matrilysin; assay: Inhibition of human MMP-7 expressed in Escherichia coli BL21(DE3) using Mca-Pro-Leu-Gly-Leu-Dpa-Ala-Arg-NH2 as substrate preincubated for 30 mins followed by susbstrate addition by photon-counter spectrophotometer analysis
Neutrophil collagenase [17] = target: T4, Neutrophil collagenase; assay: Inhibition of human MMP-8 expressed in Escherichia coli BL21(DE3) using Mca-Pro-Leu-Gly-Leu-Dpa-Ala-Arg-NH2 as substrate preincubated for 30 mins followed by susbstrate addition by photon-counter spectrophotometer analysis
[18] = target: T8, Matrix metalloproteinase-9; assay: Inhibition of human MMP-9 expressed in Escherichia coli BL21(DE3) using Mca-Pro-Leu-Gly-Leu-Dpa-Ala-Arg-NH2 as substrate preincubated for 30 mins followed by susbstrate addition by photon-counter spectrophotometer analysis
Stromelysin-2 [19] = target: T9, Stromelysin-2; assay: Inhibition of human MMP-10 expressed in Escherichia coli BL21(DE3) using Mca-Pro-Leu-Gly-Leu-Dpa-Ala-Arg-NH2 as substrate preincubated for 30 mins followed by susbstrate addition by photon-counter spectrophotometer analysis
Collagenase 3 [20] = target: T5, Collagenase 3; assay: Inhibition of human MMP-13 expressed in Escherichia coli BL21(DE3) using Mca-Pro-Leu-Gly-Leu-Dpa-Ala-Arg-NH2 as substrate preincubated for 30 mins followed by susbstrate addition by photon-counter spectrophotometer analysis
[21] = target: T6, Matrix metalloproteinase-14; assay: Inhibition of human MMP-14 expressed in Escherichia coli BL21(DE3) using Mca-Pro-Leu-Gly-Leu-Dpa-Ala-Arg-NH2 as substrate preincubated for 30 mins followed by susbstrate addition by photon-counter spectrophotometer analysis
[22] = target: T7, 72 kDa type IV collagenase; assay: Inhibition of MMP-2 (unknown origin) using Mca-Pro-Leu-Gly-Leu-Dpa-Ala-Arg-NH2 as substrate by fluorimetric assay
[23] = target: T8, Matrix metalloproteinase-9; assay: Inhibition of MMP-9 (unknown origin) using Mca-Pro-Leu-Gly-Leu-Dpa-Ala-Arg-NH2 as substrate by fluorimetric assay
Neutrophil collagenase [24] = target: T4, Neutrophil collagenase; assay: Inhibition of recombinant human MMP-8 for 3 hrs using colorimetric substrate by ELISA
HT-1080 = assay: Inhibition of cell invasion in human HT-1080 cells for 24 hrs by Calcein AM staining based fluorometric analysis; type: functional; details: HT-1080, 24 h

T4 sequence (P22894 whole entry): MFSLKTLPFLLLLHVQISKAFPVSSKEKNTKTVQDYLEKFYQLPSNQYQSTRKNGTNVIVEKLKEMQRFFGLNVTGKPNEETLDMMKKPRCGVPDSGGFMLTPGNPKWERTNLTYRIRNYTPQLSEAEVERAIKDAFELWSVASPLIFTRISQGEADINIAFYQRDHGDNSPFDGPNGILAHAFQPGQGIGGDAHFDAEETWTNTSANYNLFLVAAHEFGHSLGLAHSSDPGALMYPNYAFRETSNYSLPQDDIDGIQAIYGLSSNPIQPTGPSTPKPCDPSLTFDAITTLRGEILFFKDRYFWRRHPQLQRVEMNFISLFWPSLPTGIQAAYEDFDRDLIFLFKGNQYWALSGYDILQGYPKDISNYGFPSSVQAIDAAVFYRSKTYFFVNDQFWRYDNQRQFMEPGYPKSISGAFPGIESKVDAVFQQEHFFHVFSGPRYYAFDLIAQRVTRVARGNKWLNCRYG
T7 sequence (P08253 whole entry): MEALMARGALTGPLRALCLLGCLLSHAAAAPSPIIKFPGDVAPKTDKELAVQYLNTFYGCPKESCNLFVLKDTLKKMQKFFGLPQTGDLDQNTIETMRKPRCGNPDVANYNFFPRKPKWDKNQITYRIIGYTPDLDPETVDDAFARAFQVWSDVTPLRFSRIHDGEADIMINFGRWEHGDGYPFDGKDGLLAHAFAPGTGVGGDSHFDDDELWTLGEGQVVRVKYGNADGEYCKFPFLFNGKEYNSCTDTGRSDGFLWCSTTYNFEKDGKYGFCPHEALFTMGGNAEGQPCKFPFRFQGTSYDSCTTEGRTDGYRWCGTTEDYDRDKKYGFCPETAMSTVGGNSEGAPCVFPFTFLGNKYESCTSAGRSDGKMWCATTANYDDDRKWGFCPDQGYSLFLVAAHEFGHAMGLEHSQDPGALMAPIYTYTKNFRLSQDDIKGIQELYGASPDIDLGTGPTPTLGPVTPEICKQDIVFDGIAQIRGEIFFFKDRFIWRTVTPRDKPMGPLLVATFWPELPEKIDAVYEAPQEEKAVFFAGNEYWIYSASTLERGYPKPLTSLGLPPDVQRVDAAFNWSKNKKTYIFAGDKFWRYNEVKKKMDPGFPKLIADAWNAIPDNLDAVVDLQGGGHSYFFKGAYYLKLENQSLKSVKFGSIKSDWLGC
T9 sequence (P09238 whole entry): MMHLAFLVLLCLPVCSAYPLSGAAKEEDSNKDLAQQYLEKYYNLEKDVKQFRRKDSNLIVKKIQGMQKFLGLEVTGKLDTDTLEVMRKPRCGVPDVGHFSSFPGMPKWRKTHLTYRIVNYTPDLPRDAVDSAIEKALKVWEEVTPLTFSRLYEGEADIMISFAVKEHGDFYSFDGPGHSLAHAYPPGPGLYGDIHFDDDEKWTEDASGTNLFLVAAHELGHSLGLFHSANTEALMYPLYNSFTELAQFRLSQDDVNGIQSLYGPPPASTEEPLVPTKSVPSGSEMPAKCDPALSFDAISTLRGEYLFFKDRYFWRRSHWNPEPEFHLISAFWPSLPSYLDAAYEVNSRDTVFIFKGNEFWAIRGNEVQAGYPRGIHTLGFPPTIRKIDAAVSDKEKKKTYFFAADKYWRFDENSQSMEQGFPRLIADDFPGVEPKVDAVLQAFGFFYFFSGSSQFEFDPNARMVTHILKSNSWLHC
T8 sequence (P14780 whole entry): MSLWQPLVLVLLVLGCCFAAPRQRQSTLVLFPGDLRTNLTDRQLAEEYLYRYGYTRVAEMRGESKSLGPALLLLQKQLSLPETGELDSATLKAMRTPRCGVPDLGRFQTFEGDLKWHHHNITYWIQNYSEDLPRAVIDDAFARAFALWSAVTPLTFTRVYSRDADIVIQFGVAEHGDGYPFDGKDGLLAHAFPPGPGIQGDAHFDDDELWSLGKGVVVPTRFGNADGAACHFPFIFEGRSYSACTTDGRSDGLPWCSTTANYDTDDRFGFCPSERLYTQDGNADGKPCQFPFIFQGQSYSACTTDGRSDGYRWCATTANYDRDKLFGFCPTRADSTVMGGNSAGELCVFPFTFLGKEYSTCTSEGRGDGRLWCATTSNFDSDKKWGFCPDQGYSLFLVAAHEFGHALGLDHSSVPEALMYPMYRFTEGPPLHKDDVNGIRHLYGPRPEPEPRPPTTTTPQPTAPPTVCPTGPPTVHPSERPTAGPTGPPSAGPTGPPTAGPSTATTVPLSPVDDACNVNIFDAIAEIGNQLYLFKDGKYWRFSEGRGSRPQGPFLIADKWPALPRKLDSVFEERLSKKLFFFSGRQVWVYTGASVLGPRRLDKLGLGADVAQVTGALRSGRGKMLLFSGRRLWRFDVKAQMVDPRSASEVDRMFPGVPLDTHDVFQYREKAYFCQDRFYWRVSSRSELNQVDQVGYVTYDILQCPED
Chain of Macrophage metalloelastase (P39900 whole entry): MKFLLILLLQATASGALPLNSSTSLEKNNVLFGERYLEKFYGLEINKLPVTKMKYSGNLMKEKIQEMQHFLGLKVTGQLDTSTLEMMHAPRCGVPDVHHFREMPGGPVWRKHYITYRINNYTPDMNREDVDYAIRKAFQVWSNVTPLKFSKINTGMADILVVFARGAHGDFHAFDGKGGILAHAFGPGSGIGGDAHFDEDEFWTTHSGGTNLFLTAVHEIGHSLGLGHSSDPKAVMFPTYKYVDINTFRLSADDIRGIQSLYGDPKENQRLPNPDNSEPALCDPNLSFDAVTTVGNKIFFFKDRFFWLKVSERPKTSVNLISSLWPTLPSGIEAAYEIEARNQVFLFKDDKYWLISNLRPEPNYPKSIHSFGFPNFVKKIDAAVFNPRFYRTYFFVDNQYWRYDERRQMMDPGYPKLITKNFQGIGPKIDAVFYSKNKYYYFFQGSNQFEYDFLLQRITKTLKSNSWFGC
T2 sequence (P08254 whole entry): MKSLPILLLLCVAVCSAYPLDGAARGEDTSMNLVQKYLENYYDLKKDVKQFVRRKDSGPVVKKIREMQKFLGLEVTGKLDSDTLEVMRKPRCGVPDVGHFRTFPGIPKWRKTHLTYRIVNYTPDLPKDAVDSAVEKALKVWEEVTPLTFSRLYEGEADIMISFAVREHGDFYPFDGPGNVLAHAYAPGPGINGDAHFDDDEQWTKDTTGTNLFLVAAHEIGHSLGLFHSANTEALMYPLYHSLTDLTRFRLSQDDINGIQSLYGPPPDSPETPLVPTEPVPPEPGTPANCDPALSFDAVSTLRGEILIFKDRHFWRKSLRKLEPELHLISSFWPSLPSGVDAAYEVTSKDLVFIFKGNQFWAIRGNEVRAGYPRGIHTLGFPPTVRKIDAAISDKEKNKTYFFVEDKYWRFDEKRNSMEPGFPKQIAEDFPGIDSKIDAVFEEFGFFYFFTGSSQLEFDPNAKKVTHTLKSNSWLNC

SMILES: O=C(NO)C(Cc1ccccc1)NS(=O)(=O)c1ccc(-c2cn(-c3ccc(-c4ccccc4)cc3)nn2)cc1 (stereo not given)
IC50 (Interstitial collagenase [1]): > 10000 nM
IC50 (Stromelysin-1 [2]): 50 nM
IC50 (Matrilysin [3]): > 500 nM
IC50 (Neutrophil collagenase [4]): > 500 nM
IC50 [5]: 3.8 nM
IC50 (Collagenase 3 [6]): < 5 nM
IC50 [7]: 556 nM
IC50 [8]: 1.3 nM
IC50 [9]: 5.54 nM
IC50 (Stromelysin-2 [10]): 181 nM

SMILES: C=CC[C@H](C(=O)NO)C(CC(C)C)C(=O)N[C@@H](Cc1ccccc1)C(=O)NC (stereo not given in full)
IC50 (Interstitial collagenase [1]): 10 nM
Ki (Interstitial collagenase [1]): 8 nM
IC50 [11]: 5 nM
Ki [11]: 4 nM
IC50 (Stromelysin-1 [2]): 30 nM
Ki (Stromelysin-1 [2]): 30 nM
IC50 (Matrilysin [3]): 30 nM
Ki (Matrilysin [3]): 60 nM
IC50 (Neutrophil collagenase [4]): 3 nM
Ki (Neutrophil collagenase [4]): 3 nM
IC50 [12]: 3 nM
Ki [12]: 3 nM
Ki [5]: 5 nM
Ki (Collagenase 3 [6]): 7 nM
Ki [7]: 10 nM

SMILES: NC(=O)[C@H](CCC(=O)O)NC(=O)[C@@H](CCC(=O)O)NC(=O)CCc1ccc(-c2ccccc2)cc1
Ki (Interstitial collagenase [13]): > 100000 nM
Ki [14]: 445 nM
Ki (Stromelysin-1 [15]): 6700 nM
Ki (Matrilysin [16]): 24700 nM
Ki (Neutrophil collagenase [17]): 226 nM
Ki [18]: 1090 nM
Ki (Stromelysin-2 [19]): 1110 nM
Ki (Collagenase 3 [20]): 689 nM
Ki [21]: 5900 nM

SMILES: O=C(NCCCCC(NS(=O)(=O)c1ccc(-c2ccc(Cl)cc2)cc1)C(=O)O)OCc1ccccc1 (stereo not given)
IC50 [22]: 5 nM
IC50 [23]: 800 nM

SMILES: NCCCCC(NS(=O)(=O)c1ccc(-c2ccccc2)cc1)C(=O)O (stereo not given)
IC50 [22]: 900 nM
IC50 [23]: 40000 nM

SMILES: CCNC(=O)CCC(NS(=O)(=O)c1ccc(-c2ccccc2)cc1)C(=O)O (stereo not given)
IC50 [12]: 1.19 nM

SMILES: O=C(C[C@@H](CSc1ccccc1)C(=O)O)c1ccc(-c2ccc(Cl)cc2)cc1
Ki (Interstitial collagenase [1]): > 5000 nM
Ki [11]: 11 nM
Ki [12]: 301 nM
Ki (Collagenase 3 [6]): 147000 nM

SMILES: O=C(NC1CCC1)P(=O)(O)O [(CYCLOBUTYLAMINO)CARBONYLPHOSPHONIC ACID]
IC50 (Neutrophil collagenase [24]): 4 nM

SMILES: CO[C@H](C(=O)NO)[C@@H](CC(C)C)C(=O)N[C@H](C(=O)Nc1ccccn1)C(C)(C)C [SOLIMASTAT]
IC50 [11]: 80 nM
IC50 (Matrilysin [3]): 5 nM
IC50 [12]: 70 nM

Continued, values first:

IC50 (Interstitial collagenase [1]): > 1000 nM
IC50 (Stromelysin-1 [2]): 17.2 nM
IC50 (Matrilysin [3]): > 100 nM
IC50 (Neutrophil collagenase [4]): > 100 nM
IC50 [5]: 3.2 nM
IC50 (Collagenase 3 [6]): 0.9 nM
IC50 [7]: 65 nM
IC50 [8]: 1.4 nM
IC50 [9]: 98 nM
IC50 (Stromelysin-2 [10]): 51 nM
SMILES: O=C(NO)C1(S(=O)(=O)c2ccc(-n3cc(-c4ccc(-c5ccccc5)cc4)nn3)cc2)CCOCC1

IC50 (Interstitial collagenase [1]): > 1000 nM
IC50 (Stromelysin-1 [2]): 9.6 nM
IC50 (Matrilysin [3]): 70 nM
IC50 (Neutrophil collagenase [4]): 6.1 nM
IC50 [5]: 1.2 nM
IC50 (Collagenase 3 [6]): 1.4 nM
IC50 [7]: 8.2 nM
IC50 [8]: 0.3 nM
IC50 [9]: 11.3 nM
IC50 (Stromelysin-2 [10]): 7.8 nM
SMILES: COc1ccc(-c2cn(-c3ccc(S(=O)(=O)C4(C(=O)NO)CCOCC4)cc3)nn2)cc1

IC50 [12]: 3.57 nM
SMILES: NC(=O)CCC(NS(=O)(=O)c1ccc(-c2ccccc2)cc1)C(=O)O (stereo not given)

IC50 (Stromelysin-1 [2]): 13 nM
IC50 [5]: 7.7 nM
SMILES: COc1ccc(S(=O)(=O)N(Cc2ccccc2)[C@@H](C(=O)NO)C(C)C)cc1

IC50 (Interstitial collagenase [1]): > 400000 nM
IC50 [11]: 56000 nM
IC50 (Stromelysin-1 [2]): 32000 nM
IC50 (Matrilysin [3]): 28000 nM
IC50 (Neutrophil collagenase [4]): 26000 nM
IC50 (Collagenase 3 [6]): 20000 nM
IC50 (HT-1080): 21400 nM
SMILES: C[C@H]1c2cccc(O)c2C(=O)C2=C(O)[C@]3(O)C(=O)C(C(N)=O)=C(O)[C@@H](N(C)C)[C@@H]3[C@@H](O)[C@@H]21 [DOXYCYCLINE]

IC50 (Stromelysin-1 [2]): 290000 nM
IC50 (Matrilysin [3]): 125000 nM
IC50 [12]: 180000 nM
SMILES: CN(C)c1ccc(O)c2c1C[C@H]1C[C@H]3[C@H](N(C)C)C(O)=C(C(N)=O)C(=O)[C@@]3(O)C(O)=C1C2=O [MINOCYCLINE]
